Results as given in US20150045312A1, “Use of Compounds Elevating Glutathione Levels for the Treatment of Autism, Autistic Spectrum Disorders and Fragile X Syndrome” (Promentis Pharmaceuticals, Inc., priority 2013, published 2015).

What was measured:
[1] = cited from earlier work
[2] = in vivo; cited from earlier work
[3] = autistic patients, added to risperidone treatment; cited from earlier work
[4] = schizophrenia, bipolar disorder, obsessive-compulsive disorder, autism; cited from earlier work
system xc− = molecular target: T1, system xc− (Homo sapiens, UniProt Q9UPY5); experiment: in vitro screening assay in human glial cells from brain astrocytoma (1321N1); format: cell-based; conditions: 1321N1 cells, high system xc− expression
T1 construct: a cell line with high system xc− expression; endogenous in cells; host or cells: 1321N1 human astrocytoma cells
T1 sequence (Q9UPY5 1-501): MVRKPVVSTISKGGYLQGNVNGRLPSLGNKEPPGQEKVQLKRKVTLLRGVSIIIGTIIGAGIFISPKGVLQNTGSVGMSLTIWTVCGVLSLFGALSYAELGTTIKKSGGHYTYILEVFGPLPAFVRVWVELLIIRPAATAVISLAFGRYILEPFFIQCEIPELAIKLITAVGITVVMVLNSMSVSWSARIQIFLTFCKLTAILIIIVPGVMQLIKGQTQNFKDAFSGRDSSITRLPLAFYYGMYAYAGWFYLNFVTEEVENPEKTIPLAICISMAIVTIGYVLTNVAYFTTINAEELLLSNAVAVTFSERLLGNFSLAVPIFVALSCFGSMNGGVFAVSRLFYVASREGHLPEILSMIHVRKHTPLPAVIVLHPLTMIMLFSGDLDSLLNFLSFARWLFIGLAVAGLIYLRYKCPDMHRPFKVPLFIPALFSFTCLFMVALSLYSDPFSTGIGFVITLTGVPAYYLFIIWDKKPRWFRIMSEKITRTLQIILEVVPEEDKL
T1 sequence (P08195 1-529 partner): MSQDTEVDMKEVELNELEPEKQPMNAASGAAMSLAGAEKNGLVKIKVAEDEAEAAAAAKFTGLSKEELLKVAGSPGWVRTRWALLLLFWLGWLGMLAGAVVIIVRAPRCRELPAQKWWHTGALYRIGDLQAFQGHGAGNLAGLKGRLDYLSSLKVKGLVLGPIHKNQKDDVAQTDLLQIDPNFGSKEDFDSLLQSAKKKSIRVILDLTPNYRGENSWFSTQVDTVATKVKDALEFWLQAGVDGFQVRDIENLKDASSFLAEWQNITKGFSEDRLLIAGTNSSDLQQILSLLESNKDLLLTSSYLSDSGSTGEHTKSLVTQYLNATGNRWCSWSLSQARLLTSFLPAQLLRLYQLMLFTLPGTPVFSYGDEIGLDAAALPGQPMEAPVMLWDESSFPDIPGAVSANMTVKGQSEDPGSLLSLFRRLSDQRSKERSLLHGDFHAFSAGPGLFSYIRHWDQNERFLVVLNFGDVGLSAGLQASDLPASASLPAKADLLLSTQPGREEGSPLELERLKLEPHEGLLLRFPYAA
Excerpt: Using an in vitro screening assay conducted in human glial cells from brain astrocytoma (1321N1), a cell line with high system xc− expression, the compound with the following formula: […]
Using an in vitro screening assay conducted in human glial cells from brain astrocytoma (1321N1), a cell line with high System xc− expression, the compound with the following formula: […]

[5] = elevated plus maze (EPM) efficacy model of neuropsychiatric disease activity; format: in vivo; conditions: orally-active
[6] = pre-pulse inhibition (PPI) efficacy model of neuropsychiatric disease activity; format: in vivo

**Q.** With `CC(=O)N[C@@H](CS)C(=O)O` [NAC, N-acetyl cysteine] as the compound, how does the solubility characteristics [1] read?
**A.** poor solubility characteristics

**Q.** And the “entry into the CNS” value [2]?
**A.** do not readily enter the CNS

**Q.** And the “irritability versus risperidone+placebo” value [3]?
**A.** significantly decrease irritability

**Q.** What about the “symptoms of mental disorders” value [4] of the same compound?
**A.** modestly improve symptoms

**Q.** What does the source list for `O=C(Cc1ccccc1)N[C@@H](CSC(c1ccccc1)(c1ccccc1)c1ccccc1)C(=O)O` [drawing 15]?
**A.** 3H-glutamate (system xc−): significant elevations; uptake of 14C-cystine (system xc−): robust and significant decrease

**Q.** With `O=C(Cc1ccccc1)N[C@@H](CSC(c1ccccc1)(c1ccccc1)c1ccccc1)C(=O)O` [drawing 16] as the compound, how does the “behavioral effects in EPM model” value [5] read?
**A.** significant behavioral effects

**Q.** And the “response in PPI model compared with clozapine” value ([6]; at a comparable dose range, similar to clozapine)?
**A.** antipsychotic-like response

**Q.** And the “behavioral effects in PPI model” value ([6]; orally-active)?
**A.** significant behavioral effects

**Q.** For `N[C@@H](CCC(=O)N[C@@H](CS)C(=O)NCC(=O)O)C(=O)O` [glutathione], which solubility characteristics [1] is on record?
**A.** poor solubility characteristics

**Q.** What about the “entry into the CNS” value [2] of the same compound?
**A.** do not readily enter the CNS
